Results taken from patent US7851444B2 (priority 2002, dated 2010).

Test system: CCI rat
Conditions: in vivo

`CN1CC[C@]23c4c5ccc(O)c4O[C@H]2[C@@H](O)C=C[C@H]3[C@H]1C5` [morphine] was tested, and the “antinociceptive effects in a rat model of neuropathic pain” value was “produced antinociceptive effects”, the “duration of antinociceptive effects” value was 3 h and the “selectivity of antinociceptive effects between paws” value was “selective for the ipsilateral over the contralateral paw”.
